Converted amounts (≈) assume the structure as drawn. Counter-ions that a name gives are not always drawn. Like-named read-outs stand apart in the source and are kept apart here. No end group written: not given here.
Legend:
P. aeruginosa PA01 = test: Minimum inhibitory concentration, microbroth dilution; type: cell-based, Pseudomonas aeruginosa; details: 5x10^5 CFU/ml, 37°C, 18–24 h, visible growth; for MIC P. aeruginosa PA01 (-): peptides 512–0.25μg/ml, >70% purity (Cecropin P1 >95%), Ciprofloxacin 32–0.02μg/ml; for MIC: read-out: MIC P. aeruginosa PA01 (-), μM in brackets
Method: (§1) Prioritised helminth AMP-LPs were synthesised at >70% purity (Genosphere Biotechnologies). […] Peptides and control antibiotics [Ciprofloxacin (for gram-negative species; Sigma-Aldrich) and Vancomycin hydrochloride (for gram-positive species; Sigma-Aldrich)] were dissolved in sterile ultrapure water at a concentration of 5.12mg/ml. Minimum inhibitory concentrations (MICs) were determined for gram-positive and gram-negative bacterial isolates (see Table 3 for species) using microbroth dilution assays as described previously. Briefly, a single colony from each bacterial species was inoculated in cation-adjusted Mueller Hinton Broth (MHB) and grown for 18–24 hours at 37°C with shaking (225rpm) before being adjusted to a final bacterial density of 5x10^5 colony forming units (CFU) per ml. Peptides and Vancomycin hydrochloride were diluted using sterile MHB in sterile U-bottom 96 well polypropylene microplates (Greiner Bio One, UK) to give a concentration gradient ranging from 512–0.25μg/ml. Ciprofloxacin was further diluted in sterile MHB to give a concentration gradient ranging from 32–0.02μg/ml. Microplates were incubated at 37°C for 18–24 hours. Plates were assessed for visible growth and the MIC was defined as the lowest concentration of peptide or antibiotic that inhibited visible growth of a bacterial culture after an 18–24-hour incubation. MIC data were validated by positive and negative control antibiotic MIC data for each bacterial isolate.

E. coli K12 = test: as above; type: cell-based, Escherichia coli; details: 5x10^5 CFU/ml, 37°C, 18–24 h, visible growth; for MIC E. coli K12 (-): peptides 512–0.25μg/ml, >70% purity (Cecropin P1 >95%), Ciprofloxacin 32–0.02μg/ml; for MIC: read-out: MIC E. coli K12 (-), μM in brackets
Method: as §1

S. aureus EMRSA-15 = test: microbe, parasite or virus in culture; type: cell-based, Staphylococcus aureus
Method: as §1

E. faecalis JH2-2 = test: microbe, parasite or virus in culture; type: cell-based, Enterococcus faecalis
Method: as §1

A. baumannii DSM 30007 = test: Minimum inhibitory concentration, microbroth dilution; type: cell-based, Acinetobacter baumannii; details: 5x10^5 CFU/ml, 37°C, 18–24 h, visible growth; for MIC A. baumannii DSM 30007 (-): peptides 512–0.25μg/ml, >70% purity (Cecropin P1 >95%), Ciprofloxacin 32–0.02μg/ml; for MIC: read-out: MIC A. baumannii DSM 30007 (-), μM in brackets
Method: as §1

S. aureus RN4220 = test: microbe, parasite or virus in culture; type: cell-based, Staphylococcus aureus; details: for MIC S. aureus RN4220 (+) / MIC S. aureus RN4220 (+), μM in brackets: Methicillin-Sensitive, microbroth dilution, cation-adjusted MHB, 5x10^5 CFU/ml, 37°C, 18–24 h, visible growth; for MIC S. aureus RN4220 (+): peptides and Vancomycin hydrochloride 512–0.25μg/ml, peptides >70% purity (Cecropin P1 >95%)
Method: as §1

[1] = Methicillin-resistant, microbroth dilution, cation-adjusted MHB, 5x10^5 CFU/ml, 37°C, 18–24 h, visible growth, peptides and Vancomycin hydrochloride 512–0.25μg/ml, peptides >70% purity (Cecropin P1 >95%)
[2] = microbroth dilution, cation-adjusted MHB, 5x10^5 CFU/ml, 37°C, 18–24 h, visible growth, peptides and Vancomycin hydrochloride 512–0.25μg/ml, peptides >70% purity (Cecropin P1 >95%)
[3] = Methicillin-resistant, microbroth dilution, cation-adjusted MHB, 5x10^5 CFU/ml, 37°C, 18–24 h, visible growth
[4] = microbroth dilution, cation-adjusted MHB, 5x10^5 CFU/ml, 37°C, 18–24 h, visible growth

Compound | MIC P. aeruginosa PA01 (-) (P. aeruginosa PA01; cation-adjusted MHB) | MIC E. coli K12 (-) (E. coli K12; cation-adjusted MHB) | MIC S. aureus EMRSA-15 (+) (S. aureus EMRSA-15; [1]) | MIC E. faecalis JH2-2 (+) (E. faecalis JH2-2; [2]) | MIC A. baumannii DSM 30007 (-) (A. baumannii DSM 30007; cation-adjusted MHB) | MIC S. aureus RN4220 (+) (S. aureus RN4220) | further results
DGCPKRVAIAVLKAPYKIFKKEANKGLFKLADKIHGVRY [fAMP-LP-123, flatworm AMP-like peptide selected for synthesis and MIC screening] | / (/ indicates that there was no activity at the highest concentration of peptide used (512μg/ml)) | / (/ indicates that there was no activity at the highest concentration of peptide used (512μg/ml)) | / (/ indicates that there was no activity at the highest concentration of peptide used (512μg/ml)) | / (/ indicates that there was no activity at the highest concentration of peptide used (512μg/ml)) | / (/ indicates that there was no activity at the highest concentration of peptide used (512μg/ml)) | – | –
GKKDEGKEVVDDKAGDKKGMKKSFRRQQGWIWIYW [nAMP-LP-1231, nematode AMP-like peptide selected for synthesis and MIC screening] | / (/ indicates that there was no activity at the highest concentration of peptide used (512μg/ml)) | / (/ indicates that there was no activity at the highest concentration of peptide used (512μg/ml)) | / (/ indicates that there was no activity at the highest concentration of peptide used (512μg/ml)) | / (/ indicates that there was no activity at the highest concentration of peptide used (512μg/ml)) | / (/ indicates that there was no activity at the highest concentration of peptide used (512μg/ml)) | / (/ indicates that there was no activity at the highest concentration of peptide used (512μg/ml)) | –
FGYWSGGGHGGGHGIHGGGGGHHGWH [nAMP-LP-235, nematode AMP-like peptide selected for synthesis and MIC screening] | / (/ indicates that there was no activity at the highest concentration of peptide used (512μg/ml)) | / (/ indicates that there was no activity at the highest concentration of peptide used (512μg/ml)) | / (/ indicates that there was no activity at the highest concentration of peptide used (512μg/ml)) | / (/ indicates that there was no activity at the highest concentration of peptide used (512μg/ml)) | / (/ indicates that there was no activity at the highest concentration of peptide used (512μg/ml)) | / (/ indicates that there was no activity at the highest concentration of peptide used (512μg/ml)) | –
FDKNLLKKGKKSSAYEKHPISRRVLRFE [nAMP-LP-764, nematode AMP-like peptide selected for synthesis and MIC screening] | / (/ indicates that there was no activity at the highest concentration of peptide used (512μg/ml)) | / (/ indicates that there was no activity at the highest concentration of peptide used (512μg/ml)) | / (/ indicates that there was no activity at the highest concentration of peptide used (512μg/ml)) | / (/ indicates that there was no activity at the highest concentration of peptide used (512μg/ml)) | / (/ indicates that there was no activity at the highest concentration of peptide used (512μg/ml)) | / (/ indicates that there was no activity at the highest concentration of peptide used (512μg/ml)) | –
ISKFLKGAAIAGGLAVAGAVAYKAYKNYKKNQEQQAAATGRK [nAMP-LP-11, nematode AMP-like peptide selected for synthesis and MIC screening] | / (/ indicates that there was no activity at the highest concentration of peptide used (512μg/ml)) | / (/ indicates that there was no activity at the highest concentration of peptide used (512μg/ml)) | / (/ indicates that there was no activity at the highest concentration of peptide used (512μg/ml)) | / (/ indicates that there was no activity at the highest concentration of peptide used (512μg/ml)) | / (/ indicates that there was no activity at the highest concentration of peptide used (512μg/ml)) | / (/ indicates that there was no activity at the highest concentration of peptide used (512μg/ml)) | –
GTFWKAVGAGALIGGGAALLSKAFK[nh2] [nAMP-LP-18, nematode AMP-like peptide identified in four Meloidogyne species] | / (/ indicates that there was no activity at the highest concentration of peptide used (512μg/ml)) | / (/ indicates that there was no activity at the highest concentration of peptide used (512μg/ml)) | 64 mg/L | 64 mg/L | / (/ indicates that there was no activity at the highest concentration of peptide used (512μg/ml)) | 64 mg/L | MIC S. aureus EMRSA-15 (+), μM in brackets (S. aureus EMRSA-15; [3]): 27 µM; MIC S. aureus RN4220 (+), μM in brackets (S. aureus RN4220): 27 µM; MIC E. faecalis JH2-2 (+), μM in brackets (E. faecalis JH2-2; [4]): 27 µM
GAGRWRANRRANRRRFARRLRRNQRRAAQKRRAHARRHQRNLRRAARKIRRIQRR[nh2] (GAGRWRANRRANRRRFARRLRRNQRRAAQKRRAHARRHQRNLRRAARKIRRIQRR-NH2) [nAMP-LP-298, arginine-rich nematode AMP-like peptide conserved across four Clade 9/V gastrointestinal parasites] | 64 mg/L | 64 mg/L | 64 mg/L | 64 mg/L | 32 mg/L | 32 mg/L | MIC (P. aeruginosa PA01; cation-adjusted MHB): 9 µM; MIC (E. coli K12; cation-adjusted MHB): 9 µM; MIC S. aureus EMRSA-15 (+), μM in brackets (S. aureus EMRSA-15; [3]): 9 µM; MIC S. aureus RN4220 (+), μM in brackets (S. aureus RN4220): 5 µM; MIC E. faecalis JH2-2 (+), μM in brackets (E. faecalis JH2-2; [4]): 9 µM; MIC (A. baumannii DSM 30007; cation-adjusted MHB): 5 µM
CN[C@H](CC(C)C)C(=O)N[C@H]1C(=O)N[C@@H](CC(N)=O)C(=O)N[C@H]2C(=O)N[C@H]3C(=O)N[C@H](C(=O)N[C@H](C(=O)O)c4cc(O)cc(O)c4-c4cc3ccc4O)[C@H](O)c3ccc(c(Cl)c3)Oc3cc2cc(c3O[C@@H]2O[C@H](CO)[C@@H](O)[C@H](O)[C@H]2O[C@H]2C[C@](C)(N)[C@H](O)[C@H](C)O2)Oc2ccc(cc2Cl)[C@H]1O [Vancomycin hydrochloride, reference compound] | – | – | 2 mg/L | 2 mg/L | – | 1 mg/L | MIC (S. aureus EMRSA-15; Staphylococcus aureus, EMRSA15, read-out: MIC S. aureus EMRSA-15 (+), μM in brackets): 1 µM; MIC (S. aureus RN4220; Staphylococcus aureus, RN4220, read-out: MIC S. aureus RN4220 (+), μM in brackets): 0.7 µM; MIC (E. faecalis JH2-2; Enterococcus faecalis, JH22, read-out: MIC E. faecalis JH2-2 (+), μM in brackets): 1 µM
QWWGGRGGGRWRGGWRGGWRGRGRGWW [nAMP-LP-104] | – | – | – | – | – | 256 mg/L | MIC S. aureus EMRSA-15 (+) (S. aureus EMRSA-15; EMRSA-15): 256 mg/L; MIC E. faecalis JH2-2 (+) (E. faecalis JH2-2; JH2-2): 256 mg/L
O=C(O)c1cn(C2CC2)c2cc(N3CCNCC3)c(F)cc2c1=O [Ciprofloxacin, reference compound] | 0.5 mg/L (≈ 1.51 µM) | 0.0625 mg/L (≈ 0.189 µM) | – | – | 1 mg/L (≈ 3.02 µM) | – | MIC (P. aeruginosa PA01; Pseudomonas aeruginosa, PA01, cation-adjusted MHB): 2 µM (≈ 0.663 µg/mL); MIC (E. coli K12; Escherichia coli, K12, cation-adjusted MHB): 0.2 µM (≈ 0.0663 µg/mL); MIC (A. baumannii DSM 30007; Acinetobacter baumannii, DSM30007, cation-adjusted MHB): 3 µM (≈ 0.994 µg/mL)
